Structures can show the parent of a compound that is named as a salt. Where two headings read alike, the source gives them in different places.
Assays:
MDBK line = assay: MTT Cell Proliferation Assay, MDBK cells; type: cell-based, bovine; settings: MDBK cells, second value of cell, read-out: MTT Assay IC50(A431/MDBK): MDBK
Text: (§1) The following example describes the MTT Cell Proliferation Assay.
(§2) The MTT Cell Proliferation Assay is a colorimetric assay system that measures the reduction of the tetrazolium salt MTT (3-(4,5-dimethylthiazol-2-yl)-2,5-diphenyltetrazolium bromide) into insoluble formazan crystals, produced by the mitochondria of viable cells. […] The color can then be quantified by spectrophotometric means. Among the applications for the method are drug sensitivity, cytotoxicity, response to growth factors, and cell activation. The reduction of tetrazolium salts is now recognized as a safe, accurate alternative to radiometric testing.
(§3) Two replicates on each cell plate and 2 duplicate plates gave 4 individual replicates of each concentration, in each cell line. Concentrations were diluted in 100% DMSO from 25 mM stocks.
(§4) Twelve 96 well plates of each cell line were plated. Plating was done by dislodging cells as in passage protocol, counting on a hemocytometer, re-suspending in standard growth media, and plating using a multichannel pippetor.
(§5) 16 μl of 25 mM stock+34 μl DMSO=8 mM starting concentrations, and serial diluted as with test compounds in same plate. […] Two replicates of each concentrations was run on each cell plate. All compound addition and cell treatments were done using aseptic technique under a laminar flow aseptic hood.
(§6) Control: 0.5% DMSO in treatment media was used as the control.
(§7) MTT dye (Thiazolyl Blue Tetrazolium Bromide, Sigma cat #M5655) stock was prepared in bulk and stored at 4° C. for use: 5 mgs/ml sterile PDS, shielded from light. 4 ul of this stock per 100 uls treatment media per well was used.
(§8) Plates were incubated overnight prior to treatment, with treatment day=Day 0. Compound treatments were prepared prior to washing cells to minimize time cells were dry at room temperature after final aspiration. Compounds were diluted in 100% DMSO in 96 well polypropylene plates: 40 μl 25 mM stock+10 μl DMSO=20 mM; 20 μl of 20 mM+30 μl DMSO=8 mM; 20 μl of 8 mM+30 μl DMSO=3.2 mM; 20 μl of 3.2 mM+30 μl DMSO=1.3 mM; 20 μl of 1.3 mM+30 μl DMSO=0.51 mM.
(§9) 5.0 μl/ml were added to treatment media, in sterile, 2.2 ml deep well plates=0.5% dmso final. Ten μl of each dmso concentration was added to 2.0 ml of treatment media and then mixed using a 1200 μl multichannel pipettor. Cell plates were treated from the deep well plates. Treatment media was standard growth media containing 0.5% FBS and standard additions. This reduced FBS concentration allowed for a slower growth rate in cells.
(§10) Media was aspirated from cell plates, and washed with 200 μl/well sterile PBS. Aspirated PBS wash, and cell plates were treated with 200 μl of compound/treatment media per well, and incubated at 37° C., 5% CO2 for 3 days.
(§11) Prior to harvesting, visual observations were made under an inverted microscope. Plates were harvested by: aspirating the growth media; adding back MTT dye/100 μl treatment media; and incubating plates at 37° C. for 1 hour. MTT dye was aspirated. 100 μl/well dmso was added, and then shaken on a Bellco plate shaker for 5 minutes, at 4.5 setting.
(§12) Plates were read in a Tecan Sunrize UV plate reader, at 560 nm. Settings: Read mode, Outside Normal 2 sec; Shake settle time 3 sec. Data is reported as % inhibition, calculated for individual plates using control values from that plate.

[1] = test system: epithelial carcinoma A431 cell line; assay: MTT Cell Proliferation Assay, A431 cells; type: cell-based; settings: for IC50: first value of cell, read-out: MTT Assay IC50(A431/MDBK): A431; for MTT Assay IC50(A431/MDBK): ratio in parentheses: ratio MDBK IC50 / A431 IC50 (selectivity)
Text: as §1, §2, §3, §4, §5, §6, §7, §8, §9, §10, §11, §12

EGFR = molecular target: T1, EGFR (Homo sapiens, UniProt P00533); assay: EGFR in-cell Western (ICW) screening protocol (EGFR inhibition assay); type: cell-based; set-up: ICW 1 / ICW 2 / ICW Avg: unit not given here; settings: ICW assay; for ICW Avg: average of runs 1 and 2; for ICW 1: run 1; for ICW 2: run 2
T1 construct: host or cells: A431
Experimental: The following example describes general EGFR in-cell Western (ICW) screening protocol. Methods are according to Chen et al. (2005) Analytical Biochemistry 338, 136-142 (incorporated herein by reference), except as otherwise noted.
Cell Plates: A431 cells (ATCC # CRL-1555) were grown in Dulbecco's Modified Eagle Medium (DMEM; ATCC #30-2002) supplemented with 10% fetal bovine serum, 105 units/ml pen/strep (Invitrogen #15140155) and 2.1 mM L-glutamine (ATCC #30-2214). Cells were seeded into 96 well tissue culture plates (BD Falcon #353948) at a density of 30,000 cells per well and incubated at 37° C. with 5% CO2 overnight. Two cell plates were prepared for each compound plate.
Serum Starvation: The cells were serum starved prior to compound addition. The media was removed by aspiration and the cells washed with PBS (200 μl/well; Invitrogen #20012-027). The PBS was removed by aspiration and replaced with 200 μl of DMEM (ATCC #30-2002) supplemented with 105 units/ml pen/strep (Invitrogen #15140155) and 2.1 mM 1-glutamine (ATCC #30-2214). The cell plates were incubated at 37° C./5% CO2 for 2 hours.
Compound Plate Preparation: The test compounds were solvated in 100% DMSO (Sigma #472301-2L) at a concentration of 25 mM. Compounds found not to be completely soluble in 100% DMSO at 25 mM were diluted to 10 mM with 100% DMSO and TFA (Fluka #91699) added to a final concentration of 0.2%. 40 μl of test compound was added to the appropriate well of a 96 well plate (Falcon #351190). As controls, 6 μM EGFR kinase inhibitor PD168393 (EMD/Calbiochem #513033) in 100% DMSO and DMSO alone were added to various wells. Prepared compound plates were stored at RT prior to use and at 4° C. long term.
Compound Dilution Plate Preparation: 250 μl of DMEM supplemented with 1 mg/ml BSA (Sigma A3059-10G) was added to the appropriate wells of a 96 well plate to prepare the compound dilution plates. Using a multichannel pipettor, 1.25 μl of compound from the compound plate was transferred into the compound dilution plate.
Compound Addition: The starve media was removed from the cell plates by aspiration. Using a multichannel pipettor, the compound dilution plates were mixed by pipetting up and down three times. 50 μl of mixed, diluted compound was added to each of two rows/columns on each of two cell plates. The cell plates with compound were incubated at 37° C./5% CO2 for 4 hours.
EGF Addition: 20 ng/ml EGF (Upstate #01-107) was prepared in DMEM supplemented with 1 mg/ml BSA. 50 μl of 20 or 0 ng/ml EGF was added to the appropriate wells without the removal of compound. The compound and EGF were mixed by pipetting up and down three times. The plates were incubated at 37° C./5% CO2 for 10 min. In some screening assays the final concentration of EGF used for simulation was 6.6, or 12.5 ng/ml rather than 10 ng/ml.
Fixation and Triton Washing: The EGF+compound was removed by aspiration and 150 μl of freshly prepared Fixation Solution (1×PBS, Sigma P3813-10PK, and 4% Formaldehyde, Pierce #28908) was immediately added. The plates were incubated at RT for 20 min without shaking. The Fixation Solution was removed by aspiration and the plates washed four times with 200 μl each of Triton Wash Solution (1×PBS, Sigma P3813-10PK, and 0.1% Triton X-100, T8787-50ML) for 5 min with gentle shaking.
Blocking and Probing: Following the last Triton Wash, the plates were blocked for 1.5 h at RT with shaking using 150 μl of Odyssey Blocking Buffer (LI-COR #927-40000). The block was removed by aspiration and 50 μl of diluted primary Ab mix was added. The plates were incubated at 4° C. overnight with gentle shaking. The plates were washed five times with 200 μl of PBST (1×PBS, Sigma P3813-10PK, and 0.1% Tween-20, Sigma P9416-50ML) for 5 min each with shaking 50 μl of diluted secondary Ab mix was added and the plates incubated at RT for 1 h with shaking. The plates were washed 5× with 200 μl of PBST for 5 min each with shaking. […]

[2] = Homo sapiens, A-431, A431 cells

T1 sequence (P00533 25-1210): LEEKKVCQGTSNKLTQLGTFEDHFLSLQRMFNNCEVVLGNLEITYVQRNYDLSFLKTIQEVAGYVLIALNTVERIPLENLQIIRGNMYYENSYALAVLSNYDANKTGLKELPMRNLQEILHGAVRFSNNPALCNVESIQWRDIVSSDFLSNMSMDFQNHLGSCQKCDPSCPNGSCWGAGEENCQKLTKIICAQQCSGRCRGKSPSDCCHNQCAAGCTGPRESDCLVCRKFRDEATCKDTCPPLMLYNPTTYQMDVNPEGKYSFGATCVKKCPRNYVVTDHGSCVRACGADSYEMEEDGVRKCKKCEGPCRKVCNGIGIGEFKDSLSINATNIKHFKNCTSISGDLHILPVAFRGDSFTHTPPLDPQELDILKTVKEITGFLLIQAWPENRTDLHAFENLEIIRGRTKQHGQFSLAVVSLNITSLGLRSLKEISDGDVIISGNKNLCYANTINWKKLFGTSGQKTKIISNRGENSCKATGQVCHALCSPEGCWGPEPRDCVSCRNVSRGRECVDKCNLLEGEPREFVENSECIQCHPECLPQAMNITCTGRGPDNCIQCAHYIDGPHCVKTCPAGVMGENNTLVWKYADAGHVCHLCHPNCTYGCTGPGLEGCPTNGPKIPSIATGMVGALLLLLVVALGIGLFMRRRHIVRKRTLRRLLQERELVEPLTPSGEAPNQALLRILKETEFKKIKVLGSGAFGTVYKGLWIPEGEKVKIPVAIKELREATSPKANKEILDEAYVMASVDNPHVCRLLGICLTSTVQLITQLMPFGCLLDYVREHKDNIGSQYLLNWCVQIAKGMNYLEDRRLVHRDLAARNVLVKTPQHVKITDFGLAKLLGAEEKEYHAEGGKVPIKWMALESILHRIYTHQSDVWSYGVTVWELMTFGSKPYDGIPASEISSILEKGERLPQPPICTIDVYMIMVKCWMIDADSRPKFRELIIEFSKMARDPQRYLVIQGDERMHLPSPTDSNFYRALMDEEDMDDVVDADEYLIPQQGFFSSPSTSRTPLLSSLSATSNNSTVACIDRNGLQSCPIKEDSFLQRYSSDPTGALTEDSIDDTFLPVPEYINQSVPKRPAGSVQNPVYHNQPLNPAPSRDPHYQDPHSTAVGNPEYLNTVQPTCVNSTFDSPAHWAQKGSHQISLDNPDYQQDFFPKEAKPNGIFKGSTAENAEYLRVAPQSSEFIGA

SMILES	IC50 (MDBK line; Bos taurus, MDBK) [µM]	IC50 [1, 2] [µM]	MTT Assay IC50(A431/MDBK): ratio in parentheses [1]	ICW Avg (EGFR)	ICW 1 (EGFR)	ICW 2 (EGFR)	IC50 ([1]; A431 cells) [µM]	IC50 (MDBK line) [µM]
Cc1ccc2c(C)nc(Nc3nc(-c4ccccc4)cc(=O)[nH]3)nc2c1 [10381 + TFA]	3.01	2.1	1.43	82.76	87.04	78.48		
CCc1ccc2nc(Nc3nc(=O)cc(CSc4nc5ccccc5s4)[nH]3)nc(C)c2c1 [11300 + TFA]	7.95	26.3	0.30	25.61	25.11	26.12		
Cc1nc(Nc2nc(=O)c3c([nH]2)CCCC3)nc2c(C)cccc12 [11436 + TFA]	2.8	5.86	0.48	59.65	59.16	60.14		
Cc1nc(Nc2nc(=O)cc(CSc3ccc(Cl)cc3)[nH]2)nc2ccccc12 [11445 + TFA]	45.1		4.70	60.28	59.54	61.02	9.61	
COc1ccc(-c2cc(=O)[nH]c(Nc3nc(C)c4ccccc4n3)n2)cc1OC [11471 + TFA]	44.1	36.9	1.20	39.92	37.43	42.40		
COc1cccc2c(C)nc(Nc3nc4c(c(=O)[nH]3)CCCC4)nc12 [11484 + TFA]	9.72	11.3	0.86	70.65	67.84	73.46		
COc1cccc(-c2cc(=O)[nH]c(Nc3nc(C)c4cccc(OC)c4n3)n2)c1 [11513 + TFA]	6.32	6.73	0.94	33.45	32.64	34.26		
Cc1nc(Nc2nc(=O)cc(CSc3ccc(Cl)cc3)[nH]2)nc2ccccc12 [11583 + TFA]			1.00	51.10	47.93	54.26	47.3	47.3
COCc1cc(=O)nc(Nc2nc(C)c3cc(C)cc(C)c3n2)[nH]1 [11625 + TFA]	34.7	49	0.71	25.22	31.51	18.94		
Cc1ccc(C2CC(=O)c3cnc(Nc4nc(C)c5cc(C)c(C)cc5n4)nc3C2)cc1 (stereo not drawn) [11670 + TFA]	24.3	13.5	1.80	25.27	34.91	15.63		
CCOc1ccc2nc(Nc3ncc4c(n3)CC(c3ccco3)CC4=O)nc(C)c2c1 (stereo not drawn) [11674 + TFA]	35.5	20.2	1.76	25.04	31.91	18.16		
Cc1nc(Nc2ncc3c(n2)CC(c2ccco2)CC3=O)nc2ccccc12 (stereo not drawn) [11679 + TFA]	8.73	12.6	0.70	25.83	31.02	20.64		

From US20140179681A1, “METHODS AND COMPOSITIONS OF TARGETED DRUG DEVELOPMENT” (priority 2010, published 2014)
